Experimental data as given in ChEMBL document CHEMBL3407472, “Multi-parameter optimization of aza-follow-ups to BI 207524, a thumb pocket 1 HCV NS5B polymerase inhibitor. Part 2: Impact of lipophilicity on promiscuity and in vivo toxicity” (Bioorg Med Chem Lett, 2015).

Tests used:
[1] = biological target: T1, Amine oxidase [flavin-containing] A (Homo sapiens, UniProt P21397); assay: Inhibition of MAO-A (unknown origin)
T1 sequence (P21397 whole entry): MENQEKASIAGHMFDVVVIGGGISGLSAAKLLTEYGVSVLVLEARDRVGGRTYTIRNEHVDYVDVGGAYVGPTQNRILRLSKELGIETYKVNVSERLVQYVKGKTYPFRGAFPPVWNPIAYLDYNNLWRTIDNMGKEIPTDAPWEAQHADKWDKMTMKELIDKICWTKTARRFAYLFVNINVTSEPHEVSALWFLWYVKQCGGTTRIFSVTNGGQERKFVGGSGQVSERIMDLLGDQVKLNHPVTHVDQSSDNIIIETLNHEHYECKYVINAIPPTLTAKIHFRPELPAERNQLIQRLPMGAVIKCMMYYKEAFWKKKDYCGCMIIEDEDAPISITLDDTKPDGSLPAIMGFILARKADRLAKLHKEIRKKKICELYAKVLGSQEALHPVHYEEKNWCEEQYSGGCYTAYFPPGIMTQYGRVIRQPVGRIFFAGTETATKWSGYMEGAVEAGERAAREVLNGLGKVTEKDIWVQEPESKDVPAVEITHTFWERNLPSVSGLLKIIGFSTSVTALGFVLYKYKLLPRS

D(1A) dopamine receptor = D(1A) dopamine receptor (Homo sapiens, UniProt P21728); assay: Inhibition of dopamine D1 receptor (unknown origin)
D(1A) dopamine receptor, sequence (P21728 whole entry): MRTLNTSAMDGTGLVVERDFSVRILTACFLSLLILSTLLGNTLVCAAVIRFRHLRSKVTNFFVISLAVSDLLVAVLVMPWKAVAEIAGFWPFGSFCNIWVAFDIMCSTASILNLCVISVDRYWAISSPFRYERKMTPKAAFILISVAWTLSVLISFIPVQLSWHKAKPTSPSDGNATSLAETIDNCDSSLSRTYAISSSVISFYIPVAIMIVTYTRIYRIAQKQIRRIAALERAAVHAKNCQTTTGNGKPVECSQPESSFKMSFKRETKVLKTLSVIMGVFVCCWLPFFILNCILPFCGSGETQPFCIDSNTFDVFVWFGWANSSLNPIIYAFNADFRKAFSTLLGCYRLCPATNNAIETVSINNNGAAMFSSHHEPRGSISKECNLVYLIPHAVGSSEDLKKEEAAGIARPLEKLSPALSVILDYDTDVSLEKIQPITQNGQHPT

Glucocorticoid receptor = biological target: T2, Glucocorticoid receptor (Homo sapiens, UniProt P04150); assay: Inhibition of glucocorticoid receptor (unknown origin)
T2 sequence (P04150 whole entry): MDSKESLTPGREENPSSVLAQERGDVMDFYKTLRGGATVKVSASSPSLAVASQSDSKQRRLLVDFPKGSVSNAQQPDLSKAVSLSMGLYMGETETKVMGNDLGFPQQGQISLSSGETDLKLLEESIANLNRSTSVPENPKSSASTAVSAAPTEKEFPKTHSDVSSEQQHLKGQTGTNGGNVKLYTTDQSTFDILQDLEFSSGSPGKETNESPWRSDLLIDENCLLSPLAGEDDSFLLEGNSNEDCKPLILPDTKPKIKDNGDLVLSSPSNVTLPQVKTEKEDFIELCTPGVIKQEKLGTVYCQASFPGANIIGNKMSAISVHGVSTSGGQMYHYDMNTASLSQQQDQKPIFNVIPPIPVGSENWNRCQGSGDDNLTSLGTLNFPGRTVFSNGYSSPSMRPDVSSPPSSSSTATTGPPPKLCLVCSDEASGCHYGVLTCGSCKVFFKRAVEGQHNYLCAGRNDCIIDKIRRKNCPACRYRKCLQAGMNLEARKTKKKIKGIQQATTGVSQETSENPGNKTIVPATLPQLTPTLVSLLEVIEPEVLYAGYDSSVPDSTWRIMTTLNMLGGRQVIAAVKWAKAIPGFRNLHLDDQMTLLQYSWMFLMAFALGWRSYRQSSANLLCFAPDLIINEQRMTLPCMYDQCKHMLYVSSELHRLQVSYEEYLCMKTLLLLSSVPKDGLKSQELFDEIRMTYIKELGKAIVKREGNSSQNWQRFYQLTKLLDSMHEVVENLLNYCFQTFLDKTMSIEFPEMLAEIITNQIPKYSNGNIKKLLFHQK

[2] = biological target: T3, Prostaglandin G/H synthase 2 (Homo sapiens, UniProt P35354); assay: Inhibition of COX2 (unknown origin)
T3 sequence (P35354 whole entry): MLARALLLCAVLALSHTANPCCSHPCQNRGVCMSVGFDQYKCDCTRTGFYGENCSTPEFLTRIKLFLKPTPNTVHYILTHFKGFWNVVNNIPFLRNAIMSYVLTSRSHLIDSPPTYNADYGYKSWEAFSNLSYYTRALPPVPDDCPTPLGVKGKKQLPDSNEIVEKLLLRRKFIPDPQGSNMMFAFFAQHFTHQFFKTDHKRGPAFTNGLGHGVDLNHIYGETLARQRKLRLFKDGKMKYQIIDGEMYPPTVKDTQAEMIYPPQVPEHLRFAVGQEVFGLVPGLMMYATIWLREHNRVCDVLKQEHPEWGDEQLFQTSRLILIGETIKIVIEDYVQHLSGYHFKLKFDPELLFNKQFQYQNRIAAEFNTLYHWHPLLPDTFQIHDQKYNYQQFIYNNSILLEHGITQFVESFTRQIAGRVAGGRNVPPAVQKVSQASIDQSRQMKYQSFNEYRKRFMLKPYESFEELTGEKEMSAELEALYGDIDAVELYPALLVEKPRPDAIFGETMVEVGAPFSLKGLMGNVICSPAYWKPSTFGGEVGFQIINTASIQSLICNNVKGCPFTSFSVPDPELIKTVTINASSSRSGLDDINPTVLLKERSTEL

Cathepsin G = biological target: T4, Cathepsin G (Homo sapiens, UniProt P08311); assay: Inhibition of cathepsin G (unknown origin)
T4 sequence (P08311 whole entry): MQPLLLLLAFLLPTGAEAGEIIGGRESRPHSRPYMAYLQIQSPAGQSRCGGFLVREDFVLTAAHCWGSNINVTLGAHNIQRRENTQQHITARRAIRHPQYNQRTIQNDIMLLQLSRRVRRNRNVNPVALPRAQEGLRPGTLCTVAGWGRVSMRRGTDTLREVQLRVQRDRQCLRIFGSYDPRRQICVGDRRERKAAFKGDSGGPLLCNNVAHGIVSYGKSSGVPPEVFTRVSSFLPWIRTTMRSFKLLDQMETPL

[3] = biological target: T5, Polyunsaturated fatty acid 5-lipoxygenase (Homo sapiens, UniProt P09917); assay: Inhibition of 5-LO (unknown origin)
T5 sequence (P09917 whole entry): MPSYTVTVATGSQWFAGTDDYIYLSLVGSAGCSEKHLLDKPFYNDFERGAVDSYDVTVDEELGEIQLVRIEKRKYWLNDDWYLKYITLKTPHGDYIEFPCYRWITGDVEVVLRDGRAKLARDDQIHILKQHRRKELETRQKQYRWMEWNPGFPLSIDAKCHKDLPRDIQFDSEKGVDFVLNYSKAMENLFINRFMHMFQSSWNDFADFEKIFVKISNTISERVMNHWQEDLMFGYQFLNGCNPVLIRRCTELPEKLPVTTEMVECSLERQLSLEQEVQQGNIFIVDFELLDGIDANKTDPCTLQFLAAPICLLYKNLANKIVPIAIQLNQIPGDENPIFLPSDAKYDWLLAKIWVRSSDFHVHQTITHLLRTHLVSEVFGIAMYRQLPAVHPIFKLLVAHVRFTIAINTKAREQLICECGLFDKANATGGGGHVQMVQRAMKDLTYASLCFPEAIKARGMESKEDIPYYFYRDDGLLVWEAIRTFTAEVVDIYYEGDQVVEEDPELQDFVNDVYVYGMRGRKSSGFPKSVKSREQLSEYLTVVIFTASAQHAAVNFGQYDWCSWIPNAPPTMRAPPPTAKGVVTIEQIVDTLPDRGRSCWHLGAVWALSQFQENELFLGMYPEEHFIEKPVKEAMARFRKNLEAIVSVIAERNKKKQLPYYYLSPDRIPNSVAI

[4] = biological target: GABA-A receptor; agonist GABA site; assay: Inhibition of GABAA receptor (unknown origin); assay type: protein-complex assay, Homo sapiens
[5] = biological target: T6, Alpha-2A adrenergic receptor (Homo sapiens, UniProt P08913); assay: Inhibition of alpha2A adrenergic receptor (unknown origin)
T6 sequence (P08913 whole entry): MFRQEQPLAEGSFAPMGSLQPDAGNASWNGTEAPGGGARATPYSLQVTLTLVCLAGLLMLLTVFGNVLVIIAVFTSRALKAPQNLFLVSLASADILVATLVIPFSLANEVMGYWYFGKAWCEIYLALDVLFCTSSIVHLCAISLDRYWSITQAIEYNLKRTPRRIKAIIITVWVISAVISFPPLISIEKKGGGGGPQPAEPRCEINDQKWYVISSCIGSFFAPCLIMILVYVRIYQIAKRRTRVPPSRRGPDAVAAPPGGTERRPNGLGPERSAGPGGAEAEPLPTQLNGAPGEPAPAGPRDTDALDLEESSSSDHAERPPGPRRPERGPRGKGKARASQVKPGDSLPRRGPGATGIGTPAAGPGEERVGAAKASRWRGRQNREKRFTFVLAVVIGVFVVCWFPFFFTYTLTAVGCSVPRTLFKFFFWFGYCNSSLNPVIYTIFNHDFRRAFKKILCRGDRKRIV

Hepatitis C virus [6] = assay: Antiviral activity against Hepatitis C virus genotype 1b infected in human Huh cells assessed as inhibition of viral replication by RT-PCR-based replicon assay; assay type: functional, cell-based, Hepacivirus hominis
Hepatitis C virus [7] = assay: Antiviral activity against Hepatitis C virus genotype 1a infected in human Huh cells assessed as inhibition of viral replication by RT-PCR-based replicon assay; assay type: functional, cell-based, Hepacivirus hominis; conditions: subtype 1a
[8] = Half life in human liver microsomes at 2 uM; assay type: ADME
[9] = Lipophilicity, log D of the compound at pH 7.4; assay type: physicochemical; conditions: buffer
[10] = Half life in rat liver microsomes at 2 uM; assay type: ADME
[11] = Half life in cynomolgous monkey liver microsomes at 2 uM; assay type: ADME, Macaca fascicularis; conditions: cynomolgus monkey
[12] = Half life in dog liver microsomes at 2 uM; assay type: ADME, Canis lupus familiaris
[13] = Cmax in rat at 5 mg/kg, po and 2 mg/kg, iv; assay type: ADME, organism-based; conditions: in vivo
[14] = Cmax in cynomolgous monkey at 5 mg/kg, po and 2 mg/kg, iv; assay type: ADME, organism-based, Macaca fascicularis; conditions: cynomolgus monkey, in vivo
[15] = Cmax in dog at 5 mg/kg, po and 2 mg/kg, iv; assay type: ADME, organism-based, Canis lupus familiaris; conditions: in vivo
[16] = Half life in cynomolgous monkey at 5 mg/kg, po and 2 mg/kg, iv; assay type: ADME, organism-based, Macaca fascicularis; conditions: cynomolgus monkey, in vivo
[17] = Half life in rat at 5 mg/kg, po and 2 mg/kg, iv; assay type: ADME, organism-based; conditions: in vivo
[18] = AUC in rat at 5 mg/kg, po and 2 mg/kg, iv; assay type: ADME, organism-based; conditions: plasma
[19] = AUC in cynomolgous monkey at 5 mg/kg, po and 2 mg/kg, iv; assay type: ADME, organism-based, Macaca fascicularis; conditions: cynomolgus monkey, plasma
[20] = AUC in dog at 5 mg/kg, po and 2 mg/kg, iv; assay type: ADME, organism-based, Canis lupus familiaris; conditions: plasma
[21] = Half life in dog at 5 mg/kg, po and 2 mg/kg, iv; assay type: ADME, organism-based, Canis lupus familiaris; conditions: in vivo
[22] = Volume of distribution at steady state in rat at 5 mg/kg, po and 2 mg/kg, iv; assay type: ADME, organism-based; conditions: in vivo, read-out: Vdss
[23] = Volume of distribution at steady state in cynomolgous monkey at 5 mg/kg, po and 2 mg/kg, iv; assay type: ADME, organism-based, Macaca fascicularis; conditions: cynomolgus monkey, in vivo, read-out: Vdss
[24] = Volume of distribution at steady state in dog at 5 mg/kg, po and 2 mg/kg, iv; assay type: ADME, organism-based, Canis lupus familiaris; conditions: in vivo, read-out: Vdss
[25] = Clearance in rat at 5 mg/kg, po and 2 mg/kg, iv; assay type: ADME, organism-based; conditions: in vivo
[26] = Clearance in cynomolgous monkey at 5 mg/kg, po and 2 mg/kg, iv; assay type: ADME, organism-based, Macaca fascicularis; conditions: cynomolgus monkey, in vivo
[27] = Clearance in dog at 5 mg/kg, po and 2 mg/kg, iv; assay type: ADME, organism-based, Canis lupus familiaris; conditions: in vivo
[28] = Bioavailability in rat at 5 mg/kg, po and 2 mg/kg, iv; assay type: ADME, organism-based; conditions: in vivo
[29] = Bioavailability in cynomolgous monkey at 5 mg/kg, po and 2 mg/kg, iv; assay type: ADME, organism-based, Macaca fascicularis; conditions: cynomolgus monkey, in vivo
[30] = Bioavailability in dog at 5 mg/kg, po and 2 mg/kg, iv; assay type: ADME, organism-based, Canis lupus familiaris; conditions: in vivo
[31] = Ratio of drug uptake in liver to plasma of rat at 5 mg/kg, po and 2 mg/kg, iv after 6 to 8 hrs; assay type: ADME, organism-based
[32] = Cmax in rat at 2 mg/kg, po each in 0.5% Methylcellulose and 0.3% Tween-80 and 1% N-methylpyrrolidone; assay type: ADME, organism-based; parameters: dose 2 mg/kg, route oral; conditions: in vivo
[33] = Lipophilicity, log D of the compound; assay type: physicochemical; conditions: octanol/water
[34] = biological target: 5-hydroxytryptamine receptor 2A (Homo sapiens, UniProt P28223); assay: Inhibition of serotonin 5-HT2A receptor (unknown origin)
5-hydroxytryptamine receptor 2A, sequence (P28223 whole entry): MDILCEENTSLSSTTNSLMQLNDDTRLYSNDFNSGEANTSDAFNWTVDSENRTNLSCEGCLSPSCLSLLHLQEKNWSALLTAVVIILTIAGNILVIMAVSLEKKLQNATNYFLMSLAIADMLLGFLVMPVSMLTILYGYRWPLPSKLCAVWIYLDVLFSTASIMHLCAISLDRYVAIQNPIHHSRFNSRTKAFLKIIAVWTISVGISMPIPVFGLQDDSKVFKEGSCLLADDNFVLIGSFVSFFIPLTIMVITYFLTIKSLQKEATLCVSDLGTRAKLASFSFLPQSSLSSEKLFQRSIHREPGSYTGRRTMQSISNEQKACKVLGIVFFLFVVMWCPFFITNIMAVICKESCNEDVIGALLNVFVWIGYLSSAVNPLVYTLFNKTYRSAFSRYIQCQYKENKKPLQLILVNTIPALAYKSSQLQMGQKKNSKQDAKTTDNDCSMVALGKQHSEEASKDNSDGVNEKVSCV

SMILES: Cn1c(-c2ccccn2)c(C2CCCC2)c2ccc(C(=O)NC3(C(=O)Nc4ccc(/C=C/C(=O)O)cc4)CCC3)cc21 [BILB-1941]
- IC50 [1]: < 10000 nM
- IC50 (D(1A) dopamine receptor): < 10 µM
- IC50 (Glucocorticoid receptor): < 10 µM
- IC50 [2]: < 10 µM
- IC50 (Cathepsin G): < 10 µM
- IC50 [3]: < 10 µM
- IC50 [4]: < 10 µM
- IC50 [5]: < 10 µM

SMILES: CCOc1nc(NC(=O)C(C)(C)NC(=O)c2ccc3c(C4CCCC4)c(-c4ccc(F)cn4)n(C)c3c2)ccc1/C=C/C(=O)O
- EC50 (Hepatitis C virus [6]): 5 nM
- EC50 (Hepatitis C virus [7]): 23 nM
- half-life at 2 µM [8]: 90 min
- logD [9]: 3.5
- half-life at 2 µM [10]: 78 min
- half-life at 2 µM [11]: 13 min
- half-life at 2 µM [12]: 188 min
- Cmax [13]: 3.6 µM
- Cmax [14]: 440 nM
- Cmax [15]: 7.2 µM
- half-life [16]: 42 min
- half-life [17]: 168 min
- AUC [18]: 7.2 µM·h
- AUC [19]: 1.2 µM·h
- AUC [20]: 21 µM·h
- half-life [21]: 138 min
- Vd [22]: 1.43 L/kg
- Vd [23]: 0.4 L/kg
- Vd [24]: 0.48 L/kg
- clearance [25]: 13.1 mL/min/kg
- clearance [26]: 13.9 mL/min/kg
- clearance [27]: 4.6 mL/min/kg
- bioavailability [28]: 71%
- bioavailability [29]: 12%
- bioavailability [30]: 69%
- Kp [31]: 13.5
- Cmax [32]: 3.6 µM
- logD [33]: 3.5
- IC50 [1]: 1300 nM
- IC50 (D(1A) dopamine receptor): 6 µM
- IC50 (Cathepsin G): 6 µM
- IC50 [34]: 6 µM
